These are literature values, as cited in patent publication US20250347706A1, “DISPOSABLE CARTRIDGE FOR CLASSIFICATION OF ANTICOAGULANT AND METHOD OF USE” (Haemonetics Corporation, priority 2023, published 2025).

For this data set the following is noted: for half-life compared with dabigatran: in vivo.

On to `COc1ccc(-n2nc(C(N)=O)c3c2C(=O)N(c2ccc(N4CCCCC4=O)cc2)CC3)cc1` [apixaban], for which the “half-life compared with dabigatran” value was “shorter half-lives than dabigatran”. The increased half-life result (patients with severe renal impairment compared to healthy volunteers (Dager et al.)) is given as “up to 44%”. Regarding dabigatran, the half-life (lengthened in patients with renal dysfunction, Pradaxa product information) is 12 to 17 h. `O=C(NC[C@H]1CN(c2ccc(N3CCOCC3=O)cc2)C(=O)O1)c1ccc(Cl)s1` [rivaroxaban]: the “half-life compared with dabigatran” value is given as “shorter half-lives than dabigatran”.
